From paper PMC4877006, “From Binding-Induced Dynamic Effects in SH3 Structures to Evolutionary Conserved Sectors” (PLoS Computational Biology, 2016)

Columns and labels:
Parameters in all cases: species or system chicken
[1] = biological target: T1, c- Src I77V (SH3 domain) (Gallus gallus, UniProt P00523, I132V); experiment: ITC binding of peptide RLP2 to c-Src SH3 I77V; conditions: 25 °C
T1 construct: The plasmid pET15b containing the chicken c-Src-SH3 domain gene; made in house
Description: (§1) Differential Scanning Calorimetry (DSC) was used to evaluate the effect of the mutation on the conformational equilibrium and stability of the protein. Isothermal Titration Calorimetry (ITC) measured the binding energetics of all mutants to the RLP2 ligand at 25°C. The results for the 15 mutants studied are summarized in Figs 1D, S1 and S2, as well as S3 and S4 Tables.
(§2) The plasmid pET15b containing the chicken c-Src-SH3 domain gene was a generous gift from Dr. E. Freire (Johns Hopkins University). The genes encoding for the c-Src-SH3 mutants were obtained by site directed mutagenesis using the QuickChange Site-Directed-Mutagenesis Kit (Stratagene) taking the WT c-Src-SH3 plasmid as template or purchased from Top Gene Technologies, Canada. WT and mutants of c-Src-SH3 domain were expressed and purified as previously described for the wild type protein [68]. The peptide RLP2 (Ac-RALPPLPRY-NH2) was bought from Peptide 2.0 (Piscataway, USA) and JPT (Berlin, Germany) with a purity > 95%. Protein concentration was determined by absorbance at 280 nm using an extinction coefficient of 16500 M^-1·cm^-1. Peptide concentration was determined by absorbance at 274 nm using an extinction coefficient of 1400 M^-1·cm^-1.
(§3) Isothermal titration calorimetry was performed using a high-precision VP titration calorimetric system (Microcal Inc., Northampton, MA) as previously described. […] Titrations were made using a profile of injection volumes from 3 μL to 20 μL to define the titration curve more clearly. The heat produced by the binding reaction between the Src-SH3 domain and the peptide ligand was calculated as the difference between the heat of reaction and the corresponding heat of dilution, as obtained from independent titrations of the peptide ligand into the buffer. The resulting binding isotherms were analyzed by non-linear least-square fittings of the experimental data to a model corresponding to a single set of identical sites, as described before.
(§4) Supplementary file pcbi.1004938.s008.doc: S3 Table Analysis of Src SH3 binding affinities through ITC. Thermodynamic binding affinity to peptide RLP2. A * indicates experiment made by fluorescence titration only. (DOC) Click here for additional data file.

[2] = biological target: T2, c-Src R73E (SH3 domain) (Gallus gallus, UniProt P00523, Q128E); experiment: ITC binding of peptide RLP2 to c-Src SH3 R73E; conditions: 25 °C
T2 construct: The plasmid pET15b containing the chicken c-Src-SH3 domain gene; made in house
Description: as §1, §2, §3, §4

[3] = biological target: T3, c- Src R73Q (SH3 domain) (Gallus gallus, UniProt P00523); experiment: ITC binding of peptide RLP2 to c-Src SH3 R73Q; conditions: 25 °C
T3 construct: The plasmid pET15b containing the chicken c-Src-SH3 domain gene; made in house
Description: as §1, §2, §3, §4

[4] = biological target: T4, c-Src wt (SH3 domain) (Gallus gallus, UniProt P00523, Q128R); experiment: ITC binding of peptide RLP2 to c-Src SH3 wt; conditions: 25 °C
T4 construct: The plasmid pET15b containing the chicken c-Src-SH3 domain gene; made in house
Description: as §1, §2, §3, §4

[5] = biological target: T5, c-Src F34I (SH3 domain) (Gallus gallus, UniProt P00523, F102I/Q128R); experiment: ITC binding of peptide RLP2 to c-Src SH3 F34I; conditions: 25 °C
T5 construct: The plasmid pET15b containing the chicken c-Src-SH3 domain gene; made in house
Description: as §1, §2, §3, §4

[6] = test system: c-Src L40V (SH3 domain); experiment: ITC binding of peptide RLP2 to c-Src SH3 L40V; conditions: 25 °C
Description: as §1, §2, §3, §4

[7] = biological target: T6, c- Src W56L (SH3 domain) (Gallus gallus, UniProt P00523, Q128R/W119L); experiment: ITC binding of peptide RLP2 to c-Src SH3 W56L; conditions: 25 °C
T6 construct: The plasmid pET15b containing the chicken c-Src-SH3 domain gene; made in house
Description: as §1, §2, §3, §4

[8] = biological target: T7, c-Src H59R (SH3 domain) (Gallus gallus, UniProt P00523, H122R/Q128R); experiment: ITC binding of peptide RLP2 to c-Src SH3 H59R; conditions: 25 °C, binding of RLP2, H59R relative to wt
T7 construct: The plasmid pET15b containing the chicken c-Src-SH3 domain gene; made in house
Description: as §1, §2, §3, §4

[9] = binding of RLP2, I77V relative to wt
[10] = binding of RLP2, R73E relative to wt
[11] = binding of RLP2, R73Q relative to wt
[12] = binding of RLP2, wt = reference
[13] = binding of RLP2, F34I relative to wt
[14] = binding of RLP2, L40V relative to wt
[15] = binding of RLP2, W56L relative to wt

∆∆Gb (25 ºC) [1, 9]: 0.31 ± 0.03 kcal/mol
∆∆Hb (25 ºC) [1, 9]: 0.5 ± 0.2 kcal/mol
∆Hb (25 ºC) ([1]; ITC, binding of RLP2, I77V): -13.7 ± 0.1 kcal/mol
Kd ([1]; ITC, RLP2 about 2 mM titrated into SH3 (50-122 μM), I77V, read-out: Kd (25 ºC)): 15.5 ± 0.3 µM
∆∆Gb (25 ºC) [2, 10]: -0.24 ± 0.04 kcal/mol
∆∆Hb (25 ºC) [2, 10]: -0.1 ± 0.3 kcal/mol
∆Gb (25 ºC) ([2]; ITC, binding of RLP2, R73E): -6.87 ± 0.03 kcal/mol
∆Hb (25 ºC) ([2]; ITC, binding of RLP2, R73E): -14.3 ± 0.2 kcal/mol
Kd ([2]; ITC, RLP2 about 2 mM titrated into SH3 (50-122 μM), R73E (control), read-out: Kd (25 ºC)): 9.3 ± 0.5 µM
∆∆Gb (25 ºC) [3, 11]: -0.11 ± 0.04 kcal/mol
∆∆Hb (25 ºC) [3, 11]: -0.4 ± 0.2 kcal/mol
∆Gb (25 ºC) ([3]; ITC, binding of RLP2, R73Q): -6.74 ± 0.02 kcal/mol
∆Hb (25 ºC) ([3]; ITC, binding of RLP2, R73Q): -14.6 ± 0.1 kcal/mol
Kd ([3]; ITC, RLP2 about 2 mM titrated into SH3 (50-122 μM), R73Q (control), read-out: Kd (25 ºC)): 11.4 ± 0.3 µM
∆∆Gb (25 ºC) [4, 12]: 0 kcal/mol
∆∆Hb (25 ºC) [4, 12]: 0 kcal/mol
∆Gb (25 ºC) ([4]; ITC, binding of RLP2, wt): -6.63 ± 0.03 kcal/mol
∆Hb (25 ºC) ([4]; ITC, binding of RLP2, wt): -14.2 ± 0.2 kcal/mol
Kd ([4]; ITC, RLP2 about 2 mM titrated into SH3 (50-122 μM), single set of identical sites, wt, read-out: Kd (25 ºC)): 13.8 ± 0.6 µM
∆∆Gb (25 ºC) [5, 13]: 0.79 ± 0.03 kcal/mol
∆∆Hb (25 ºC) [5, 13]: 0.6 ± 0.3 kcal/mol
∆Gb (25 ºC) ([5]; ITC, binding of RLP2, F34I): -5.84 ± 0.01 kcal/mol
∆Hb (25 ºC) ([5]; ITC, binding of RLP2, F34I): -13.6 ± 0.3 kcal/mol
Kd ([5]; ITC, RLP2 about 2 mM titrated into SH3 (50-122 μM), F34I, read-out: Kd (25 ºC)): 52.6 ± 1.2 µM
∆∆Gb (25 ºC) [6, 14]: 0.24 ± 0.04 kcal/mol
∆∆Hb (25 ºC) [6, 14]: -0.6 ± 0.3 kcal/mol
∆Gb (25 ºC) ([6]; ITC, binding of RLP2, L40V): -6.39 ± 0.02 kcal/mol
∆Hb (25 ºC) ([6]; ITC, binding of RLP2, L40V): -14.8 ± 0.2 kcal/mol
Kd ([6]; ITC, RLP2 about 2 mM titrated into SH3 (50-122 μM), L40V, read-out: Kd (25 ºC)): 20.5 ± 0.6 µM
∆∆Gb (25 ºC) [7, 15]: 0.98 ± 0.03 kcal/mol
∆∆Hb (25 ºC) [7, 15]: 2.4 ± 0.2 kcal/mol
∆Gb (25 ºC) ([7]; ITC, binding of RLP2, W56L): -5.65 ± 0.01 kcal/mol
∆Hb (25 ºC) ([7]; ITC, binding of RLP2, W56L): -11.8 ± 0.1 kcal/mol
Kd ([7]; ITC, RLP2 about 2 mM titrated into SH3 (50-122 μM), W56L, read-out: Kd (25 ºC)): 72.5 ± 1.4 µM
∆∆Gb (25 ºC) [8]: -0.13 ± 0.03 kcal/mol
∆∆Hb (25 ºC) [8]: -0.1 ± 0.3 kcal/mol
Substance: Ac-RALPPLPRY-NH2 [RLP2, Ac-RALPPLPRY-NH2]
